Source: patent publication US11111249B2, “Heteroaryl-pyrazole derivative, and preparation method therefor and medical application thereof” (Jiangsu Hengrui Medicine Co., Ltd., priority 2017, dated 2021)

Tests used:
human TLR8 = biological target: T1, human TLR8 (Homo sapiens, UniProt Q9NR97); test: Activation of hTLR8 in HEK-Blue hTLR8 stably transfected cells; type: cell-based; settings: OD 620 nm, 6-16 hours
T1 construct: host or cells: HEK-Blue hTLR8 (HEK293-derived) stably transfected cells
T1 sequence (Q9NR97 27-1041): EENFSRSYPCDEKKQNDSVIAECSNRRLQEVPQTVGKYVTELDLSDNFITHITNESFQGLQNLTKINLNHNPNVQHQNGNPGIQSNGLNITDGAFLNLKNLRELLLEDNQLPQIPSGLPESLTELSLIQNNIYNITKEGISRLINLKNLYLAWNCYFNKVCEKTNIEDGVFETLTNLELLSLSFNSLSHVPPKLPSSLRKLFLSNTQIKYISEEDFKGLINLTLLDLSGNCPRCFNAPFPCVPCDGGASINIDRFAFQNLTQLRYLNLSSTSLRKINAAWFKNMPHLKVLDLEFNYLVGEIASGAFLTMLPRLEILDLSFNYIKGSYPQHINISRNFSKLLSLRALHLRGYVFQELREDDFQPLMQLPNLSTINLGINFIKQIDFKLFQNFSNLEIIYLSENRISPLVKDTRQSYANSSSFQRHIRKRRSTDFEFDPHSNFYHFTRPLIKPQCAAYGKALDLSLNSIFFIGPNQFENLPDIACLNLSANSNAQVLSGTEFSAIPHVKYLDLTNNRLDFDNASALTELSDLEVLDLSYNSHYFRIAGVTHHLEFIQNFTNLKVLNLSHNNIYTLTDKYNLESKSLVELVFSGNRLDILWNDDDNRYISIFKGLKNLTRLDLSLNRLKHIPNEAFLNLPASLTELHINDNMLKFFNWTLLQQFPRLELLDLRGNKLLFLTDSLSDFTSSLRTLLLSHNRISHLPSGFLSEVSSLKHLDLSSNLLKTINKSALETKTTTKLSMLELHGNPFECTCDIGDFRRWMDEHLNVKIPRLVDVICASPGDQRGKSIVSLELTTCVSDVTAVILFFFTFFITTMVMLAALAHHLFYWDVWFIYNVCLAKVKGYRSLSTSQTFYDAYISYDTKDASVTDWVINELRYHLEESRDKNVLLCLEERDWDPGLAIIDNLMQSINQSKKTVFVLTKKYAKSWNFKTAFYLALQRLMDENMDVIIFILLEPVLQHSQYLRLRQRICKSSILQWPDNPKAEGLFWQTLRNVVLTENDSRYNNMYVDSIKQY
Method: The activation effect of the compound of the present application on the hTLR7 protein expressed in HEK-Blue™ hTLR7 stably transfected cells and hTLR8 protein expressed in HEK-Blue™ hTLR8 stably transfected cells were determined by the following experimental method:
The HEK-Blue assay medium was configured, HEK-Blue test dry powder was taken and 50 mL deendotoxin water were added to dissolve, then the resulting mixture was placed into the 37° C. incubator, and then filtered aseptically 10 minutes later. […]
The above-prepared compound was diluted 20-fold with a medium, and then 20 μL of the diluted compound were added to each well. HEK-Blue™ hTLR7 cells and HEK-Blue™ hTLR8 cells were taken separately, and the supernatant was removed first, then 2-5 mL pre-warmed PBS was added, placed in an incubator for 1-2 minutes, and the cells were gently pipetted, stained with trypan blue and counted. […]
The microplate reader reads at a wavelength of 620 nm. The corresponding OD value was obtained, and the EC50 value of the drug was calculated by Graphpad Prism. The activation effect of the compound of the present application and the control compound (prepared by the method of embodiment 21 of WO2016023511) on human TLR7 and TLR8 were determined by the above test, and the measured EC50 values were as shown in Table 1.

CYP2D6 = biological target: T2, CYP2D6 (Homo sapiens, UniProt P10635); test: Inhibition of human liver microsome CYP2D6 (dextromethorphan substrate); type: in vitro ADME; settings: human liver microsomes, 30 minutes, read-out: IC50 for the metabolic site on CYP2D6
T2 construct: Human liver microsomes (Corning Gentest); tissue Corning Gentest; host or cells: human liver microsomes
T2 sequence (P10635 whole entry): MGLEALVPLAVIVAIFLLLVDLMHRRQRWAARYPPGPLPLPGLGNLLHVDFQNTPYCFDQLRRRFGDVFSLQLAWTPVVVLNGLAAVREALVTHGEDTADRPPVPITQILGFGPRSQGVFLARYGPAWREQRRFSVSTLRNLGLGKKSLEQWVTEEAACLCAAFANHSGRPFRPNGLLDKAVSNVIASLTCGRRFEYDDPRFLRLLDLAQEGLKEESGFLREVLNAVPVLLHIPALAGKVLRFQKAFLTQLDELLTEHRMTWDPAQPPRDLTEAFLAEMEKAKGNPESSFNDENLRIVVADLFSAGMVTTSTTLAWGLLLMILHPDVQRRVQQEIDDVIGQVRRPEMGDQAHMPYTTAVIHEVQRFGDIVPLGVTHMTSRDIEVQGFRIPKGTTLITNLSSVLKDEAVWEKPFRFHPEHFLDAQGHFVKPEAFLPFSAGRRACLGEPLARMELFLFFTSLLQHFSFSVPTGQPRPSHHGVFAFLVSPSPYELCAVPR
Method: The enzymatic activity of the compound of the present application against human liver microsome CYP2D6 was determined by the following experimental method:
CYP probe substrate (20 μM Dextromethorphan, SIGMA Q0750) and positive control inhibitor (Quinidine, SIGMA D9684).
100 mM PBS buffer was configured, and 2.5 mg/mL microsome solution and 5 mM NADPH solution were prepared with this buffer, and the 5× concentration compound working solution was diluted with PBS (150, 50, 15, 5, 1.5, 0.15, 0.015, 0 μM). The 5× concentration of Quinidine working solution (150, 50, 15, 5, 1.5, 0.15, 0.015, 0 μM) was diluted with PBS. Dextromethorphan working solution was diluted to a concentration of 20 μM with PBS.
20 μL each of 2.5 mg/mL microsome solution, 20 μM Dextromethorphan working solution, MgCl2 solution and compound working solution (150, 50, 15, 5, 1.5, 0.15, 0.015, 0 μM, each concentration was setted differently reaction system) were taken and mixed evenly. The compound was replaced with the same concentration of Quinidine at the positive control group. At the same time, 5 mM NADPH solution was pre-incubated for 5 minutes at 37° C. After 5 minutes, 20 μL NADPH were added into the wells, and the reaction was started and incubated for 30 minutes. All samples were incubated for two samples. […]

Row | SMILES | EC50 (human TLR8) [µM] | IC50 (CYP2D6) [µM]
1 | CCCCOc1nc(N)c2[nH]nc(Cc3ccc(CN4CCCC4)cc3)c2n1 [Embodiment 1, 5-Butoxy-3-(4-(pyrrolidin-1-ylmethyl)benzyl)-1H-pyrazolo[4,3-d]pyrimidin-7-amine] | 5.22 | > 30
2 | CCCCOc1nc(N)c2[nH]cc(Cc3ccc(CN4CCCC4)cc3)c2n1 [Embodiment 21 of WO2016023511] | 12.5 | 5.3
